Test results reported in patent US20170112859A1, “METHOD OF TREATMENT USING AN ASSOCIATION OF LOSARTAN AND ACETYLSALICYLIC ACID, AND KIT” (BIOLAB SANUS FARMACEUTICA LTDA, priority 2014, published 2017).
Entries after “also recorded” stand apart in the source; their conditions may differ.

Experiments:
platelet aggregation = platelet aggregation tests with arachidonic acid or ADP as stimulants, volunteers' platelet-rich plasma; format: in vivo, human
Protocol: (§1) One group (Arm A) received 30 days of daily doses of 50 mg of losartan potassium and 81 mg of acetylsalicylic acid. The second group (Arm B) received over the same 30 day period, daily doses of 50 mg of losartan potassium and doses of 81 mg of acetylsalicylic acid only every three days.
(§2) Control of bioavailability for acetylsalicylic acid in the analyzed individuals was performed through platelet aggregation tests, using arachidonic acid and adenosine diphosphate (ADP) as stimulants, and through the measuring of thromboxane by immunoenzymatic techniques.
(§3) The test results shown in FIGS. 1 to 6 consider four periods: D0, which is the pre-test time D15—the fifteenth day of testing, D16—the sixteenth day of testing and D17—the seventeenth day testing.

[1] = target: T1, platelet cyclooxygenase enzyme (Homo sapiens, UniProt P23219); assay: measurement of thromboxane B2 (TXB2) in stimulated platelet-rich plasma by immunoenzymatic technique; format: in vivo; settings: D15-D17
T1 construct: from tissue; host or cells: platelets of dosed healthy volunteers (ex vivo stimulation with arachidonic acid or ADP)
T1 sequence (P23219 24-599): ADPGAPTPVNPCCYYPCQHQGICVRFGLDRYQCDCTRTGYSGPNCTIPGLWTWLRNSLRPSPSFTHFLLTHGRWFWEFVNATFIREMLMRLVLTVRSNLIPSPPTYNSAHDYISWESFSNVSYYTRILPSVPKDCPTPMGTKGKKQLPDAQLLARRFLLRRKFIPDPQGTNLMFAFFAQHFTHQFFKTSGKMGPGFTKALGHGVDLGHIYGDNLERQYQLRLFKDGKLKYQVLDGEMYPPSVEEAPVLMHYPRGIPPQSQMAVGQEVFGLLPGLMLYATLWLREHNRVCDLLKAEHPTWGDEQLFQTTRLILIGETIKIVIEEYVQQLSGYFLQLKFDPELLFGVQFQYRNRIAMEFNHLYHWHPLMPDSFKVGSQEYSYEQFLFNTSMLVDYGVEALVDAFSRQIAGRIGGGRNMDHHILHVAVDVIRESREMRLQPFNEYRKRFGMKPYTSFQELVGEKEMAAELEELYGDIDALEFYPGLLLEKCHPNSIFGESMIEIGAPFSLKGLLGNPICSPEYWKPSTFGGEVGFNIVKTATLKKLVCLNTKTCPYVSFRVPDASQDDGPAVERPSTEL
Protocol: as §1, §2
Such control is based on tests to evaluate the competition between two compounds for binding to a specific antibody, namely, free thromboxane 2 (TXB 2) to be analyzed and present in the samples tested, and marked thromboxane 2 (TXB 2), attached to a molecule of acetylcholinesterase and with constant concentration (provided by the test kits).
as §3

[2] = test system: prostaglandin synthesis (PGE2) in gastric mucosa; assay: prostaglandin-E2 concentration in antrum biopsies collected during endoscopy, pre- and post-treatment; format: in vivo, human; settings: 30 days
Protocol: as §1
To obtain this proof, endoscopic tests were performed on each volunteer, always before starting treatment and also after treatment, when biopsies were collected.
From these samples, collected from both Arm A and Arm B of the treatment, the inhibition of prostaglandin was measured.

[3] = test system: prostaglandin synthesis (PGE2) in gastric mucosa; settings: daily use, as described in the prior art; cited from earlier work
[4] = Arm A: 81 mg daily plus 50 mg losartan potassium daily
[5] = Arm B: 81 mg every three days plus 50 mg losartan potassium daily

Structure (SMILES): CC(=O)Oc1ccccc1C(=O)O [acetylsalicylic acid]
- level of platelet inhibition (platelet aggregation; Arm A (81 mg daily) compared with Arm B (81 mg every three days), both with 50 mg losartan potassium daily, 30 days, healthy volunteers, stimulants arachidonic acid 300 μg/ml or ADP 20 μM): almost the same level of platelet inhibition
- inhibitory effect of the platelet aggregation (platelet aggregation; acetylsalicylic acid administered every three days): sustained
- inhibition of the platelet cyclooxygenase enzyme [1, 4]: satisfactory inhibition
- inhibition of the platelet cyclooxygenase enzyme [1, 5]: satisfactory inhibition
- prostaglandin (PGE2) levels post-treatment versus pre-treatment basal [2, 4]: significant decrease
- prostaglandin (PGE2) levels post-treatment versus pre-treatment basal [2, 5]: did not alter the basal dose; also recorded: remained unaltered
- PGE2 levels [3]: drastically reduces
